# Patent US12508322B2, “MIR-145 micelles for mitigating atherosclerosis” (University of Southern California, priority 2021, dated 2025)
# Assays:
# [1] = system: atherosclerotic plaques; assay: Analysis of atherosclerotic lesions (aortic root H&E, en face Oil Red O) after a single IV dose; type: in vivo, mice
# Experimental: Male Myh11-CreER^T2 ROSA26 STOP-flox eYFP^+/+ Apoe^−/− mice and female Apoe^−/− mice were used for all studies as the Myh11 transgene is expressed only in male mice. Mice were genotyped by qPCR. Following previously reported methods, mice received ten intraperitoneal injections of 1 mg tamoxifen from 6 weeks of age to 8 weeks for 10 mg total of tamoxifen per 25 g of mouse body weight.
# (§1) Subsequently, mice were fed a high fat diet (20-23% milkfat, 34% sucrose, 0.2% cholesterol, Teklad Envigo) for 2 weeks before intravenous tail vein injection of treatment (miR-145 micelles, miR-67 micelles, scrambled MCP-1 (NT) miR-145 micelles, free miR-145 (1 mg/kg miR or 0.7 mM total micelle), or PBS). Mice continued high fat diet for an additional 4 weeks or 8 weeks for short- and longer-term efficacy analyses. Mice were then euthanized via CO2 asphyxiation and perfused with PBS, 4% paraformaldehyde (PFA), and PBS again. Organs and aorta were carefully dissected and saved for additional analyses.
# Atherosclerotic plaques were analyzed in two ways: 1) en face analysis of entire aorta with Oil Red O (ORO) lipid stain and 2) hematoxylin and eosin (H&E) stains of cross sections of aortic roots. Briefly, aortas were dissected from the root to the common iliac arteries. Excess adventitial fat was carefully removed and the aorta was fixed in 4% PFA overnight. The tissue was then cleaned in 78% methanol for 5 min before staining for 1 h with 0.2% ORO solution in methanol. The aortas were then washed twice with 78% methanol for 5 min each and cut open longitudinally before imaging with a stereomicroscope (Leica, Wetzlar, Germany). Quantification of positively stained lesions was done using ImageJ software (NIH, Bethesda, MD). Aortic roots were embedded in optimal cutting temperature compound (OCT) and flash frozen in 2-methylbutane and liquid nitrogen. Roots were sectioned at 10 μm thick sections and stained using H&E. Plaque and necrotic core area in three aortic root sections were quantified and averaged for each sample to obtain a mean±S.D. measurement.
# [2] = system: VSMC phenotype in plaques (α-SMA, CD68, RUNX2, eYFP); assay: In vivo immunohistochemistry: cellular composition of aortic root plaques; parameters: species or system mice; conditions: one month after single dose
# Experimental: as §1
# Aortic roots were cryosectioned as mentioned above. Tissue sections were blocked in 10% donkey serum with 1% BSA. Sections were subsequently stained with antibodies to GFP (Abcam ab6673), α-SMA (Abcam ab5694), CD68 (Abcam ab125212), and RUNX2 (Abcam ab192256) overnight at 4° C. Donkey anti-rabbit IgG Alexa Fluor 594 (Thermo Fisher, Waltham, MA, USA) and donkey anti-goat IgG Alex Fluor 488 (Thermo Fisher, Waltham, MA, USA) were used as secondary antibodies. Sections were counterstained with DAPI for the nuclei, mounted in ProLong Gold Antifade (Thermo Fisher, Waltham, MA, USA), and imaged using a confocal microscope (Nikon C2 CLSM, Nikon, Tokyo, Japan). Cells were then counted using ImageJ software. […]
# [3] = system: miR-145; assay: In vivo miR-145 expression in liver tissue (RT-qPCR); parameters: species or system mice; conditions: one month post treatment
# Experimental: as §1
# Aortic roots and liver tissue were obtained from treated mice. Tissues were weighed and lysed with Trizol (Invitrogen, Carlsbad, CA). miRNeasy Mini Kit (Qiagen, Hilden, Germany) was used to extract microRNA and the miScript II RT Kit (Qiagen, Hilden, Germany) was used to synthesize cDNA according to manufacturer's instructions. Real-time qRT-PCR was performed on the LightCycler 480 Real-Time PCR System ([…]) to evaluate miR-145 levels. RNU-6 was used as an internal control and the 2-AACT method was used to calculate relative expression changes.
# [4] = Serum cholesterol quantification (HDL, LDL); type: in vivo, mice; conditions: two months post injection
# Experimental: Serum cholesterol levels were quantified using a high density lipoprotein (HDL) and low density lipoprotein (LDL) quantification kit (Sigma-Aldrich). Following the manufacturer's protocol, HDL and LDL were separated in serum using precipitation buffer. HDL and LDL samples were subsequently incubated with Reaction Mixes and fluorescence (ex: 535 nm/em: 587 nm) was measured using a plate reader (Varioskan LUX, Thermo Fisher, Waltham, MA, USA).
# [5] = one month after single dose, 1 mg/kg miR IV
substance,measurement,setting,value
"free miR-145: unformulated miR-145, 5′-GUCCAGUUUUCCCAGGAAUCCCU-3′ (SEQ ID NO: 2) (listed as RNA, chemistry not given here; listed as Homo sapiens)",overall lesion area of the aorta (ORO en face),[1]; [5],7.0±1.3%
same,plaque area in the aortic root,[1]; [5],2.1±0.9%
same,lesion area by en face ORO staining,[1]; two months after single dose,8.0±2.0%
same,plaque/lesional area in the aortic root,[1]; two months after single dose,10.8±5.0%
same,overlap in eYFP and α-SMA signal (α-SMA+YFP+/YFP+),[2],30.0±22.1%
same,α-SMA expression within plaques (α-SMA+/DAPI),[2],40.1±30.7%
same,"miR-145 expression in the liver, fold increase compared to PBS",[3],1.5 fold
same,serum HDL level,[4],increases
